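Briefly, cells in 96-well plates were exposed to five compound concentrations for 48 h, and endpoints were estimated by linear interpolation. GI50 is the concentration that inhibits growth by half.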 Calls of active or inactive are those of the source. Cut-off read from the data, not from the text of the source: active = GI50 up to about 1.1 µM and inactive = higher.
Columns and labels:
Experiment in all cases: NCI anticancer screen, dose series, 48 h
NCI-H23 = test system: NCI-H23
A549 = test system: A549
SW-620 = test system: SW-620
CAKI-1 = test system: CAKI-1
MDA-MB-231 = test system: MDA-MB-231
UACC-257 = test system: UACC-257
OVCAR-3 = test system: OVCAR-3
TK-10 = test system: TK-10
UO-31 = test system: UO-31
NCI-H460 = test system: NCI-H460
HCT-15 = test system: HCT-15
HOP-62 = test system: HOP-62
SN12C = test system: SN12C
DU-145 = test system: DU-145
OVCAR-4 = test system: OVCAR-4
HCT-116 = test system: HCT-116
U-251 = test system: U-251
SK-OV-3 = test system: SK-OV-3
OVCAR-5 = test system: OVCAR-5
MDA-MB-435 = test system: MDA-MB-435

Structure (SMILES) | GI50 (NCI-H23) | GI50 (A549) | GI50 (SW-620) | GI50 (CAKI-1) | GI50 (MDA-MB-231) | GI50 (UACC-257) | GI50 (OVCAR-3) | GI50 (TK-10) | GI50 (UO-31) | GI50 (NCI-H460) | GI50 (HCT-15) | GI50 (HOP-62) | GI50 (SN12C) | GI50 (DU-145) | GI50 (OVCAR-4) | GI50 (HCT-116) | GI50 (U-251) | GI50 (SK-OV-3) | GI50 (OVCAR-5) | GI50 (MDA-MB-435)
O=c1c2ccccc2nc(N/N=C/c2ccccc2O)n1-c1ccccc1 | 6.21 µM (inactive) | 4.8 µM (inactive) | 5.75 µM (inactive) | 5.62 µM (inactive) | 4.59 µM (inactive) | 5.04 µM (inactive) | 3.49 µM (inactive) | 6.43 µM (inactive) | 2.54 µM (inactive) | 4.01 µM (inactive) | 2.97 µM | 5.25 µM (inactive) | 6.24 µM (inactive) | 5 µM (inactive) | 5.18 µM (inactive) | 2.88 µM (inactive) | 5.2 µM (inactive) | 13.8 µM (inactive) | 7.18 µM (inactive) | 4.71 µM (inactive)
COc1ccc(-c2oc3c(OC)c(OC)c(OC)c(OC)c3c(=O)c2OC)cc1OC [3,5,6,7,8,3',4'-HEPTAMETHOXYFLAVONE] | 72.6 µM (inactive) | 70.6 µM (inactive) | 32.8 µM (inactive) | 53.8 µM (inactive) | 59.7 µM (inactive) | 53.1 µM (inactive) | 18.7 µM (inactive) | 61 µM (inactive) | 23.6 µM (inactive) | 19.8 µM (inactive) | 35.9 µM | 14.5 µM (inactive) | 93.3 µM (inactive) | 55.1 µM (inactive) | 47.2 µM (inactive) | 47.4 µM (inactive) | 51.5 µM (inactive) | > 100 µM (inactive) | > 100 µM (inactive) | 15.8 µM (inactive)
Cc1ccc(C2=Nn3c(nc4sc5c(c4c3=O)CCCC5)SC2)cc1 | > 100 µM (inactive) | > 100 µM (inactive) | > 100 µM (inactive) | > 100 µM (inactive) | > 100 µM (inactive) | > 100 µM (inactive) | > 100 µM (inactive) | > 100 µM (inactive) | > 100 µM (inactive) | > 100 µM (inactive) | > 100 µM | > 100 µM (inactive) | > 100 µM (inactive) | > 100 µM (inactive) | > 100 µM (inactive) | > 100 µM (inactive) | > 100 µM (inactive) | > 100 µM (inactive) | > 100 µM (inactive) | > 100 µM (inactive)
Cc1nc(NC(C)(CO)CO)nc(N/N=C/c2ccc(Cl)cc2)c1C(=O)Nc1ccc(Cl)cc1 | > 100 µM (inactive) | 77.3 µM (inactive) | > 100 µM (inactive) | > 100 µM (inactive) | > 100 µM (inactive) | > 100 µM (inactive) | > 100 µM (inactive) | > 100 µM (inactive) | > 100 µM (inactive) | > 100 µM (inactive) | > 100 µM | > 100 µM (inactive) | > 100 µM (inactive) | > 100 µM (inactive) | > 100 µM (inactive) | 80.2 µM (inactive) | 74.8 µM (inactive) | > 100 µM (inactive) | > 100 µM (inactive) | > 100 µM (inactive)
O=C(O)C1OC(n2cc(F)c(=O)[nH]c2=O)CC1O (stereo not given) | 38.7 µM (inactive) | 2.97 µM (inactive) | > 86.5 µM (inactive) | > 39.5 µM (inactive) | > 39.1 µM (inactive) | > 100 µM (inactive) | 60.1 µM (inactive) | > 100 µM (inactive) | 18.6 µM (inactive) | 0.447 µM (active) | 77.4 µM | 5.22 µM (inactive) | 17.7 µM (inactive) | 24.3 µM (inactive) | > 100 µM (inactive) | 23.1 µM (inactive) | 35.2 µM (inactive) | > 94.8 µM (inactive) | > 100 µM (inactive) | > 93.1 µM (inactive)
CC(C)(C)OC(=O)N(O)CCCn1cnc2c(NC3CC3)ncnc21 | > 100 µM (inactive) | > 100 µM (inactive) | > 100 µM (inactive) | > 100 µM (inactive) | > 100 µM (inactive) | > 100 µM (inactive) | > 100 µM (inactive) | > 100 µM (inactive) | > 100 µM (inactive) | > 100 µM (inactive) | > 100 µM | > 100 µM (inactive) | > 100 µM (inactive) | > 100 µM (inactive) | > 100 µM (inactive) | > 100 µM (inactive) | > 100 µM (inactive) | > 100 µM (inactive) | > 100 µM (inactive) | > 100 µM (inactive)
O=C(C(=O)c1cc(-c2ccccc2)nc2ccc3ccccc3c12)c1ccccc1 | 34.1 µM (inactive) | 68.4 µM (inactive) | 59 µM (inactive) | 58.3 µM (inactive) | > 100 µM (inactive) | 75.7 µM (inactive) | 67.1 µM (inactive) | 99.3 µM (inactive) | > 100 µM (inactive) | > 100 µM (inactive) | 75 µM | 31.6 µM (inactive) | > 100 µM (inactive) | > 100 µM (inactive) | 21.1 µM (inactive) | 10.6 µM (inactive) | 34.5 µM (inactive) | 46.7 µM (inactive) | > 100 µM (inactive) | 33.2 µM (inactive)
CC(=O)C(=[N+]=[N-])C(=O)OC(C)(C)C#N | > 10 µM (inactive) | > 10 µM (inactive) | > 10 µM (inactive) | > 10 µM (inactive) | > 10 µM (inactive) | > 10 µM (inactive) | > 10 µM (inactive) | > 10 µM (inactive) | > 10 µM (inactive) | > 10 µM (inactive) | > 10 µM | > 10 µM (inactive) | > 10 µM (inactive) | > 10 µM (inactive) | > 10 µM (inactive) | > 10 µM (inactive) | > 10 µM (inactive) | > 10 µM (inactive) | > 10 µM (inactive) | > 10 µM (inactive)
O=C1C2=Nc3ccccc3C(O)N2c2ccccc21 (stereo not given) | 3.92 µM (inactive) | 32.8 µM (inactive) | > 100 µM (inactive) | 48.4 µM (inactive) | 14.9 µM (inactive) | 4.09 µM (inactive) | 11.6 µM (inactive) | > 100 µM (inactive) | 46.8 µM (inactive) | 20.2 µM (inactive) | 16.6 µM | 65.3 µM (inactive) | 27.2 µM (inactive) | 53.3 µM (inactive) | > 100 µM (inactive) | > 83.4 µM (inactive) | > 52.5 µM (inactive) | 68.2 µM (inactive) | 81.1 µM (inactive) | 2.56 µM (inactive)
Cc1cc2c(c(/C=N/Cc3ccccc3)c1)OC1(C=C2)Oc2ccccc2C(=O)N1C (stereo not given) | 24.8 µM (inactive) | 29.5 µM (inactive) | 33.6 µM (inactive) | 16.6 µM (inactive) | 27.5 µM (inactive) | 25.8 µM (inactive) | 37.4 µM (inactive) | 26 µM (inactive) | 14 µM (inactive) | 25.1 µM (inactive) | 19.6 µM | 31.6 µM (inactive) | 27.7 µM (inactive) | 25.4 µM (inactive) | 29.2 µM (inactive) | 21 µM (inactive) | 29.4 µM (inactive) | 37.5 µM (inactive) | 21.4 µM (inactive) | 28.7 µM (inactive)
O=C1Oc2ccccc2C(=O)/C1=C/N1C(=O)N/C(=C\c2ccccc2O)C1=O | 59.8 µM (inactive) | 58.9 µM (inactive) | > 90.8 µM (inactive) | 79.4 µM (inactive) | 36.9 µM (inactive) | 67.5 µM (inactive) | 32.7 µM (inactive) | 60.5 µM (inactive) | 39 µM (inactive) | 35.2 µM (inactive) | 39.8 µM | 71.3 µM (inactive) | 53.6 µM (inactive) | 46.3 µM (inactive) | 55.3 µM (inactive) | 36.6 µM (inactive) | 57.7 µM (inactive) | > 62.7 µM (inactive) | > 100 µM (inactive) | > 79.3 µM (inactive)
Cc1cc(NC(=O)NC(=O)c2ccccc2N)ccc1Oc1ncc(Br)cn1 | 0.0125 µM (active) | 0.0112 µM (active) | < 0.0103 µM (active) | < 0.01 µM (active) | < 0.01 µM (active) | 0.0655 µM (active) | < 0.01 µM (active) | 0.239 µM (active) | 0.0535 µM (active) | < 0.0112 µM (active) | < 0.0107 µM | 0.0118 µM (active) | 0.0583 µM (active) | 0.0125 µM (active) | 4.78 µM (inactive) | < 0.0124 µM (active) | 0.0141 µM (active) | 0.0103 µM (active) | 0.0396 µM (active) | < 0.01 µM (active)
CC1=NN(C(=O)CSc2nnc(SCC(=O)N3N=C(C)CC3(O)c3ccccc3)s2)C(O)(c2ccccc2)C1 (stereo not given) | 34 µM (inactive) | 48.4 µM (inactive) | > 100 µM (inactive) | 45.8 µM (inactive) | 95.5 µM (inactive) | 43.8 µM (inactive) | 41.1 µM (inactive) | 54.3 µM (inactive) | 22.3 µM (inactive) | 27.6 µM (inactive) | 33.2 µM | 51.3 µM (inactive) | 61.7 µM (inactive) | 35.5 µM (inactive) | 32.9 µM (inactive) | 30.9 µM (inactive) | > 100 µM (inactive) | > 100 µM (inactive) | 82.4 µM (inactive) | 51.3 µM (inactive)
O=S(=O)(O)c1cc(Nc2ccnc3ccccc23)c2c(S(=O)(=O)O)cc(S(=O)(=O)O)cc2c1 | > 100 µM (inactive) | > 100 µM (inactive) | 42.1 µM (inactive) | > 100 µM (inactive) | > 100 µM (inactive) | > 100 µM (inactive) | > 100 µM (inactive) | > 100 µM (inactive) | > 100 µM (inactive) | > 100 µM (inactive) | > 100 µM | > 100 µM (inactive) | > 100 µM (inactive) | > 100 µM (inactive) | > 100 µM (inactive) | > 100 µM (inactive) | > 100 µM (inactive) | > 100 µM (inactive) | > 100 µM (inactive) | > 100 µM (inactive)

— ChEMBL document CHEMBL1201862, “PubChem BioAssay data set” (2004)
